≈ marks a conversion by molar mass, not a printed value. Numbered stars: 1 amine (or outer) side, 2 acyl side, 3 side chain; on linkers, the order of the positions; unused ones are H or OH. Bridge positions count the residues as written; N and C are the ends. Square brackets hold non-standard residues; d marks the D form. Peptide text beside a SMILES is read from it. * marks the point of attachment. ξ: configuration not given here. Piperazine(2S-CO,4-Me) = CN1CCN[C@H](C(=O)O)C1; Phe(3-Me) = Cc1cccc(C[C@H](N)C(=O)O)c1; NH(4-Cl-2-F-phenyl) = Fc1cc(Cl)ccc1N*; Pro(4R-Me) = C[C@H]1CN[C@H](C(=O)O)C1; Hyp = O=C(O)[C@@H]1C[C@@H](O)CN1; ξNMeThr = CNC(C(=O)O)[C@@H](C)O; aThr = C[C@H](O)[C@H](N)C(=O)O; CO = O=C([*:1])[*:2]; X2 = Fc1cc(N*)ccc1Cl
How the values were obtained:
[1] = Solubility determination; format: physicochemical; settings: for solubility kinetic at 10 min: 22 °C, aqueous buffer, kinetic from dmso stock
Experimental: Test compounds were synthesized and supplied by the Department of Chemical Biology and Therapeutics at St. Jude Children's Research Hospital (Memphis, Tenn.). LC-MS chromasolv grade acetonitrile (ACN) was purchased from Fisher Scientific (Loughborough, UK). LC-MS chromasolv grade formic acid was obtained from Sigma-Aldrich (St. Louis, Mo.). Milli-Q water as an ultrapure laboratory grade water was used in aqueous mobile phase.
Chromatographic separation was performed on an Acquity UPLC BEH C18 1.7 μm, 2.1×50 mm column (Waters Corporation, Milford, Mass.) using an Acquity ultra performance liquid chromatography system. The total flow rate was 0.9 mL/min. The sample injection volume was 10 μL. The UPLC column was maintained at 60° C. and the gradient program started at 90% A (0.1% formic acid in MilliQ H2O), changed to 70% A over 0.2 min, to 95% B (0.1% formic acid in ACN) over 1.4 minutes, held for 0.35 minutes, then to 90% A over 0.05 minutes.
Mass data was acquired with an Acquity SQD Mass Spectrometer. The mass spectrometer was operated in positive-ion mode with electrospray ionization. The conditions were as follows: capillary voltage 3.5 kV, cone voltage 30 V, source temperature 150° C., desolvation temperature 350° C., desolvation gas 500 L/hr, cone gas 25 L/hr. Data were acquired using Masslynx v. 4.1 and analyzed using the Quanlynx software suite. A full scan range from m/z=100-1000 in 0.2 s was used to acquire MS data. Both UV and Single ion recording mass spectrometry were used to determine the quantification of the samples.
Stock solutions were prepared by dissolving compounds into DMSO to yield a concentration of 10 mM. Stock solutions were stored at room temperature.
Calibration standards were made by adding stock solutions to DMSO for final concentrations of compounds at concentration of 100, 25, 6.25, 1.563, 0.391 and 0.098 μM.
Solubility test samples were made by adding stock solutions to 200 μL, of DPBS for final concentrations of compounds at 100 μM in a 96-well analytical plate (300 μL, maximum volume in each well). Samples were tested in triplicates. The plate was sealed, shaken at 600 rpm for 10 minutes, and then was centrifuged at 4000 rpm for 20 min at 22° C. 100 μL, of the supernatant was transferred to a new analytical 96-well plate and 10 μL, was injected onto the LCMS system.
Two calibration curves for solubility test samples were analyzed during the quantitation process. The linear regression of test compound peak areas was weighted by 1/x^2. […] Coefficient of determination (R^2) was used to evaluate the linearity of each calibration curve.

[2] = Microsomal metabolic stability; format: in vitro ADME, mouse; settings: CD-1, mouse, pH 7.4
Experimental: Compounds were initially prepared by dissolving them into DMSO at a final concentration of 10 mM. NADPH regenerating solutions A and B and mouse liver microsomes (CD-1) were obtained from BD Gentest (Woburn, Mass.). Ninety-six well deep well plates were obtained from MidWest Scientific Inc (Valley Park, Mo.).
Sample preparation for microsomal stability was modified from methods of Di, L., et al., Int J Pharm. 2005 Jun. 13; 297(1-2):110-9. A set of incubation times of 0, 15, 30, 60, 120, and 240 minutes were used. Mouse liver microsomal solutions were prepared by adding 58 μL of concentrated human or mouse liver microsomes (20 mg/mL protein concentration) to 1.756 mL of 0.1 M potassium phosphate buffer (pH 7.4) and 5 μL of 0.5 M EDTA to make a 0.6381 mg/mL (protein) microsomal solution. NADPH regenerating agent contained 113 μL of NADPH A, 23 μL of NADPH B, and 315 μL of 0.1 M potassium phosphate buffer (pH 7.4). The diluted test compound solutions (2 μL) were each added directly to a 1.79 mL of liver microsomal solution. This solution was mixed and 90 μL was transferred to 6 time points plates (each in triplicate wells). For the time 0 plate, 225 μL of cold acetonitrile with internal standard ([…] warfarin) was added to each well, followed by addition of NADPH regenerating agent (22.5 μL) and no incubation. For other five time points' plate, NADPH regenerating agent (22.5 μL) was added to each well to initiate the reaction. The plates were incubated at 37° C. for the required time, followed by quenching of the reaction by adding 225 μL of cold acetonitrile with internal standard (4 μg/ml warfarin). All of the plates were sealed and mixed well at 600 rpm for 10 minutes followed by centrifugation at 4000 rpm for 20 minutes. The supernatants (120 μL) were transferred to analytical plates for analysis by LCMS. LCMS conditions were described in the materials and instrumentation section above. The metabolic stability is evaluated via the half-life from least-squares fit of the multiple time points based on first-order kinetics.

[3] = Plasma stability assay; format: in vitro ADME, human; settings: human, 10 μM
Experimental: The plasma stability property of early drug discovery compounds can influence the in vivo efficacy of the test compounds/drugs. Human and/or mouse plasma degradation is determined using multiple time points to monitor the rate of disappearance of the parent compound during incubation.
Sample preparation for plasma stability was modified from Di et al. (2005) Int. J. Pharm. 297(1-2): 110-119. A set of incubation times of 0, 3, 24, and 48 hour were used. DMSO stock solutions of test compounds were prepared at 10 mM concentration. 1.8 μL of each test compound was each added directly to 1.8 mL of human/mouse plasma to get the final concentration of 10 μM. This compound/matrix was mixed and 70 μL was transferred to 8 time points plates (each in triplicate wells). For the Time 0 plate, 210 μL of cold acetonitrile with internal standard (4 μg/mL warfarin) was added to each well and no incubation needed. For other seven time points' plate, the plate was incubated at 37° C. for required time, followed by quenching of the reaction by adding 210 μL of cold acetonitrile with internal standard (4 μg/ml warfarin) to each well. All of the plates were sealed and mixed well at 600 rpm for 10 min and were centrifuged at 4000 rpm for 20 min. The supernatants (120 μL) were transferred to analytical plates for analysis by LCMS. Conditions for Waters ACQUITY-UPLC-MS-UV system was described separately. The plasma stability was evaluated via the half-life from least-squares fit of the multiple time points based on first-order kinetics.

Structure (SMILES)	μsol (μM) [1] [µM]	solubility kinetic at 10 min [1] [µM]	Mouse [2]	Human [3] [h]
Cc1cccc(C[C@H](NC(=O)Nc2ccc3c(c2)OCCO3)C(=O)N[C@H]2COC(=O)[C@@H]3C[C@@H](C)CN3C(=O)[C@H](C)NC(=O)[C@@H]3CCCCN3C(=O)[C@@H]3CCCN3C2=O)c1 [Compound 22, (S)-2-(3-(2,3-DIHYDROBENZO[B][1,4]DIOXIN-6-YL)UREIDO)-N-((2R,6S,8AS,14AS,20S,23AS)-2,6-DIMETHYL-5,8,14,19,23-PENTAOXOOCTADECAHYDRO-1H,5H,14H,19H-PYRIDO[2,1-I]DIPYRROLO[2,1-C:2′,1′-L][1]OXA[4,7,10,13]TETRAAZACYCLOHEXADECIN-20-YL)-3-(M-TOLYL)PROPANAMIDE]	7.6 ± 0.3	3.3 ± 0.2 (≈ 2.69 µg/mL)	4.48 ± 0.61 h	>50
Cc1cccc(C[C@H](NC(=O)Nc2ccc(Cl)cc2F)C(=O)N[C@@H]2C(=O)N3C[C@H](O)C[C@H]3C(=O)N3CCN(C)C[C@H]3C(=O)N[C@@H](C)C(=O)N3C[C@H](C)C[C@H]3C(=O)O[C@H]2C)c1 [Compound 31, (S)-2-(3-(4-CHLORO-2-FLUOROPHENYL)UREIDO)-N-((6AS,8R,12S,13S,15AS,17R,21S,23AS)-8-HYDROXY-2,13,17,21-TETRAMETHYL-6,11,15,20,23-PENTAOXOOCTADECAHYDRO-2H,6H,11H,15H-PYRAZINO[2,1-I]DIPYRROLO[2,1-C:2′,1′-L][1]OXA[4,7,10,13]TETRAAZACYCLOHEXADECIN-12-YL)-3-(M-TOLYL)PROPANAMIDE] ({NH(4-Cl-2-F-phenyl)-CO}-[Phe(3-Me)][aThr][Hyp][Piperazine(2S-CO,4-Me)]A[Pro(4R-Me)]; ester 2-C)	54.7 ± 4.7	68.9 ± 8.9 (≈ 58.9 µg/mL)	2.65 ± .655 h	>50
Cc1cccc(C[C@H](NC(=O)Nc2ccc(Cl)c(F)c2)C(=O)N[C@H]2COC(=O)[C@@H]3C[C@@H](C)CN3C(=O)[C@H](C)NC(=O)[C@@H]3CN(C)CCN3C(=O)[C@@H]3CCCN3C2=O)c1 [Compound 14, (S)-2-(3-(4-CHLORO-3-FLUOROPHENYL)UREIDO)-3-(M-TOLYL)-N-((6AS,12S,15AS,17R,21S,23AS)-2,17,21-TRIMETHYL-6,11,15,20,23-PENTAOXOOCTADECAHYDRO-2H,6H,11H,15H-PYRAZINO[2,1-I]DIPYRROLO[2,1-C:2′,1′-L][1]OXA[4,7,10,13]TETRAAZACYCLOHEXADECIN-12-YL)PROPANAMIDE] ({X2-CO}-[Phe(3-Me)]SP[Piperazine(2S-CO,4-Me)]A[Pro(4R-Me)]; ester 2-C)	43.6 ± 1.8	39.3 ± 1.9 (≈ 32.4 µg/mL)	3.15 ± 0.26 h	97.65 ± 17.0
Cc1cccc(C[C@H](NC(=O)Nc2ccc(Cl)cc2F)C(=O)N[C@@H]2C(=O)N3CCC[C@H]3C(=O)N(C)C([C@@H](C)O)C(=O)N[C@@H](C)C(=O)N3C[C@H](C)C[C@H]3C(=O)O[C@H]2C)c1 (stereo partly drawn) [Compound 5] ({NH(4-Cl-2-F-phenyl)-CO}-[Phe(3-Me)][aThr]P[ξNMeThr]A[Pro(4R-Me)]; ester 2-C)	22.5 ± 1.9	17.4 ± 0.4 (≈ 14.4 µg/mL)	1.02 ± 0.2 h	>50
